# From patent US20100216799A1, “PHTHALAZINE AND PYRIDO[3,4-D]PYRIDAZINE COMPOUNDS AS H1 RECEPTOR ANTAGONISTS” (Glaxo Group Limited, priority 2007, published 2010)
# What was measured:
# Format in all cases: cell-based
# human H1 receptor [1] = target: T1, human H1 receptor (Homo sapiens, UniProt P35367); test: Histamine H1 functional antagonist assay (FLIPR): determination of antagonist pA2; conditions: CHO cells expressing H1 receptor, shift of histamine concentration response curve
# T1 construct: expressed in transfected cells
# Procedure: The human H1 receptor is cloned using known procedures described in the literature [Biochem. Biophys. Res. Commun., 201(2):894 (1994)]. Chinese hamster ovary (CHO) cells stably expressing the human H1 receptor are generated according to known procedures described in the literature [Br. J. Pharmacol., 117(6):1071 (1996)]. The histamine H1 receptor expressing CHO cells are seeded into non-coated black-walled clear bottom 96-well tissue culture plates as described above. Following overnight culture, growth medium is removed from each well, washed with 200 μl PBS and is replaced with 50 μl loading dye (250 μM Brilliant Black, 1 μM Fluo-4 diluted in Tyrodes buffer+probenecid (145 mM NaCl, 2.5 mM KCl, 10 mM HEPES, 10 mM D-glucose, 1.2 mM MgCl2, 1.5 mM CaCl2, 2.5 mM probenecid, pH adjusted to 7.40 with NaOH 1.0 M)). Cells are incubated for 45 min at 37° C. The loading buffer is removed and the cells are washed as above, and 90 μl of Tyrodes buffer+probenecid is added to each well. 10 μl of test compound, diluted to the required concentration in Tyrodes buffer+probenecid (or 10 μl Tyrodes buffer+probenecid as a control) is added to each well and the plate is incubated for 30 min at 37° C., 5% CO2. The plates are then placed into a FLIPR™ (Molecular Devices, UK) to monitor cell fluorescence (λex=488 nm, λEM=540 nm) in the manner described in Sullivan et al., (In: Lambert DG (ed.), Calcium Signaling Protocols, New Jersey: Humana Press, 1999, 125-136) before and after the addition of 50 μl histamine over a concentration range of 1 mM-0.1 nM. The resultant concentration response curves are analysed by non-linear regression using a standard four parameter logistic equation to determine the histamine EC50, the concentration of histamine required to produce a response of 50% of the maximum response to histamine. The antagonist pA2 is calculated using the following standard equation: pA2=log(DR-1)−log [B] where DR=dose ratio, defined as EC50antagonist-treated/EC50control and [B]=concentration of antagonist.
# human H1 receptor [2] = target: T1, human H1 receptor; test: Histamine H1 functional antagonist assay (FLIPR): determination of functional pKi values; conditions: CHO cells expressing human H1 receptor, histamine at EC80, read-out: average pKa (pKb) at H1 (converted)
# Procedure: (§1) The human H1 receptor is cloned using known procedures described in the literature [Biochem. Biophys. Res. Commun., 201(2):894 (1994)]. Chinese hamster ovary (CHO) cells stably expressing the human H1 receptor are generated according to known procedures described in the literature [Br. J. Pharmacol., 117(6):1071 (1996)].
# The histamine H1 cell line is seeded into non-coated black-walled clear bottom 384-well tissue culture plates in alpha minimum essential medium (Gibco/Invitrogen, cat no. 22561-021), supplemented with 10% dialysed foetal calf serum (Gibco/Invitrogen cat no. 12480-021) and 2 mM L-glutamine (Gibco/Invitrogen cat no 25030-024) and is maintained overnight at 5% CO2, 37° C.
# Excess medium is removed from each well to leave 10 μl. 30 μl loading dye (250 μM Brilliant Black, 2 μM Fluo-4 diluted in Tyrodes buffer+probenecid (145 mM NaCl, 2.5 mM KCl, 10 mM HEPES, 10 mM D-glucose, 1.2 mM MgCl2, 1.5 mM CaCl2, 2.5 mM probenecid, pH adjusted to 7.40 with NaOH 1.0 M)) is added to each well and the plates are incubated for 60 min at 5% CO2, 37° C.
# 10 μl of test compound, diluted to the required concentration in Tyrodes buffer+probenecid (or 10 μl Tyrodes buffer+probenecid as a control) is added to each well and the plate is incubated for 30 min at 37° C., 5% CO2. The plates are then placed into a FLIPR™ (Molecular Devices, UK) to monitor cell fluorescence (λex=488 nm, λEM=540 nm) in the manner described in Sullivan et al., (In: Lambert DG (ed.), Calcium Signaling Protocols, New Jersey: Humana Press, 1999, 125-136) before and after the addition of 10 μl histamine at a concentration that results in the final assay concentration of histamine being EC80.
# Functional antagonism is indicated by a suppression of histamine induced increase in fluorescence, as measured by the FLIPR™ system (Molecular Devices). By means of concentration effect curves, functional affinities are determined using standard pharmacological mathematical analysis.
# human H1 receptor [3] = target: T1, human H1 receptor; test: Histamine H1 functional antagonist assay (FLIPR): antagonist duration after washout; conditions: at one or more time points, typically 30-270 min
# Procedure: as §1
# To determine the antagonist duration, cells are cultured overnight in non-coated black-walled clear bottom 96-well tissue culture plates, are washed with PBS and are incubated with a concentration of antagonist chosen to give an approximate DR in the range 30-300. Following the 30 min antagonist incubation period, the cells are washed two or three times with 200 μl of PBS and then 100 μl Tyrodes buffer is added to each well to initiate antagonist dissociation. Following incubation for predetermined times, typically 30-270 min at 37° C., the cells are then washed again with 200 μl PBS and are incubated with 100 μl Tyrodes buffer containing Brilliant Black, probenecid and Fluo-4 for 45 min at 37° C., as described above. After this period, the cells are challenged with histamine in the FLIPR™ as described above. The dose ratio at each time point is used to determine the fractional H1 receptor occupancy by the following equation: fractional receptor occupancy=(DR-1)/DR. The decrease in receptor occupancy over time approximates to a straight line and is analysed by linear regression. The slope of this straight line fit is used as an index of the dissociation rate of the antagonist. The dose ratios for antagonist treated cells and for antagonist treated and washed cells at each time point are used to calculate a relative dose ratio (rel DR) which is also used as an index of antagonist duration. Antagonists with long duration of action produce rel DR values close to 1, and antagonists with short duration of action produce rel DR values that approaches the dose ratio value obtained for antagonist treatment alone.
# T1 sequence (P35367 whole entry): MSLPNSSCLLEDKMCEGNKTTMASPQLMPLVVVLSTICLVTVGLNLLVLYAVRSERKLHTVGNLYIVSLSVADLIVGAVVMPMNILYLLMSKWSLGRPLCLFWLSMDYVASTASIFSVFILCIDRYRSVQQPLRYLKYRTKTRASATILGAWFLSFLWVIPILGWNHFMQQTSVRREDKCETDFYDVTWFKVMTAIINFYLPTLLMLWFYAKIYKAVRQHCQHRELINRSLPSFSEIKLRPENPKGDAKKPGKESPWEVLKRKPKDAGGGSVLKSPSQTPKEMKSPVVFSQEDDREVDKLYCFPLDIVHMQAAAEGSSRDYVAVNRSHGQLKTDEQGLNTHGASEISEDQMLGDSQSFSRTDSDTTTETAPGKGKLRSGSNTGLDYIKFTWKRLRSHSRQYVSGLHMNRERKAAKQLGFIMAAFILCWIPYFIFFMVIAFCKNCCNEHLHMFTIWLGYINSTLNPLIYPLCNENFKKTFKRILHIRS
SMILES,Kb (human H1 receptor [1]),Kb (human H1 receptor [2]),duration of action compared with azelastine (human H1 receptor [3])
"CCS(=O)(=O)CCN1CCC[C@@H]1Cn1nc(Cc2ccc(Cl)cc2)c2ccccc2c1=O [Example 1, 4-[(4-Chlorophenyl)methyl]-2-({(2R)-1-[2-(ethylsulfonyl)ethyl]-2-pyrrolidinyl}methyl)-1(2H)-phthalazinone]",< 1 nM,,
"O=c1c2ccccc2c(Cc2ccc(Cl)cc2)nn1C[C@H]1CCCN1CCS(=O)(=O)N1CCCCC1 [Example 2, 4-[(4-Chlorophenyl)methyl]-2-({(2R)-1-[2-(1-piperidinylsulfonyl)ethyl]-2-pyrrolidinyl}methyl)-1(2H)-phthalazinone]",,< 100 nM,
"CCS(=O)(=O)CCCN1CCC[C@@H]1Cn1nc(Cc2ccc(Cl)cc2)c2ccccc2c1=O [Example 3, 4-[(4-Chlorophenyl)methyl]-2-({(2R)-1-[3-(ethylsulfonyl)propyl]-2-pyrrolidinyl}methyl)-1(2H)-phthalazinone]",< 1 nM,,longer duration of action than azelastine
"CCS(=O)(=O)C(C)CCN1CCC[C@@H]1Cn1nc(Cc2ccc(Cl)cc2)c2ccccc2c1=O (stereo partly drawn) [Example 4, 4-[(4-Chlorophenyl)methyl]-2-({(2R)-1-[3-(ethylsulfonyl)butyl]-2-pyrrolidinyl}methyl)-1(2H)-phthalazinone]",< 1 nM,,
"CCS(=O)(=O)[C@@H](C)CCN1CCC[C@@H]1Cn1nc(Cc2ccc(Cl)cc2)c2ccccc2c1=O [Example 5A, 4-[(4-Chlorophenyl)methyl]-2-({(2R)-1-[(3S)-3-(ethylsulfonyl)butyl]-2-pyrrolidinyl}methyl)-(2H)-phthalazinone]",< 10 nM,,
"CCS(=O)(=O)[C@H](C)CCN1CCC[C@@H]1Cn1nc(Cc2ccc(Cl)cc2)c2ccccc2c1=O [Example 5B, 4-[(4-Chlorophenyl)methyl]-2-({(2R)-1-[(3R)-3-(ethylsulfonyl)butyl]-2-pyrrolidinyl}methyl)-(2H)-phthalazinone]",< 10 nM,,
"CCS(=O)(=O)NCCN1CCC[C@@H]1Cn1nc(Cc2ccc(Cl)cc2)c2ccccc2c1=O [Example 6, N-[2-((2R)-2-{[4-[(4-Chlorophenyl)methyl]-1-oxo-2(1H)-phthalazinyl]methyl}-1-pyrrolidinyl)ethyl]ethanesulfonamide]",< 1 nM,,longer duration of action than azelastine
"CCCS(=O)(=O)NCCN1CCC[C@@H]1Cn1nc(Cc2ccc(Cl)cc2)c2ccccc2c1=O [Example 7, N-[2-((2R)-2-{[4-[(4-Chlorophenyl)methyl]-1-oxo-2(1H)-phthalazinyl]methyl}-1-pyrrolidinyl)ethyl]-1-propanesulfonamide]",< 1 nM,< 100 nM,longer duration of action than azelastine
"CC(C)S(=O)(=O)NCCN1CCC[C@@H]1Cn1nc(Cc2ccc(Cl)cc2)c2ccccc2c1=O [Example 8, N-[2-((2R)-2-{[4-[(4-Chlorophenyl)methyl]-1-oxo-2(1H)-phthalazinyl]methyl}-1-pyrrolidinyl)ethyl]-2-propanesulfonamide]",< 1 nM,< 100 nM,longer duration of action than azelastine
"COCCCNS(=O)(=O)CCN1CCC[C@@H]1Cn1nc(Cc2ccc(Cl)cc2)c2ccccc2c1=O [Example 10, 2-((2R)-2-{[4-[(4-Chlorophenyl)methyl]-1-oxo-2(1H)-phthalazinyl]methyl}-1-pyrrolidinyl)-N-[3-(methyloxy)propyl]ethanesulfonamide]",< 10 nM,< 100 nM,longer duration of action than azelastine
"CCCNC(=O)NCCN1CCC[C@@H]1Cn1nc(Cc2ccc(Cl)cc2)c2ccccc2c1=O [Example 11, N-[2-((2R)-2-{[4-[(4-Chlorophenyl)methyl]-1-oxo-2(1H)-phthalazinyl]methyl}-1-pyrrolidinyl)ethyl]-M-propylurea]",< 1 nM,,longer duration of action than azelastine
"CCS(=O)(=O)CCCN1CCC[C@@H]1Cn1nc(Cc2ccc(Cl)cc2)c2cnccc2c1=O [Example 12, 4-[(4-Chlorophenyl)methyl]-2-({(2R)-1-[3-(ethylsulfonyl)propyl]-2-pyrrolidinyl}methyl)pyrido[3,4-d]pyridazin-1(2H)-one]",< 1 nM,,longer duration of action than azelastine
"CCS(=O)(=O)CCN1CCC[C@@H]1Cn1nc(Cc2ccc(Cl)cc2)c2cnccc2c1=O [Example 13, 4-[(4-Chlorophenyl)methyl]-2-({(2R)-1-[2-(ethylsulfonyl)ethyl]-2-pyrrolidinyl}methyl)pyrido[3,4-d]pyridazin-1(2H)-one]",< 10 nM,,
"CCCNC(=O)NCCN1CCC[C@@H]1Cn1nc(Cc2ccc(Cl)cc2)c2cnccc2c1=O [Example 14, N-[2-((2R)-2-{[4-[(4-chlorophenyl)methyl]-1-oxopyrido[3,4-d]pyridazin-2(1H)-yl]methyl}-1-pyrrolidinyl)ethyl]-M-propylurea]",< 1 nM,,
